Reference: article PMC7177757, “The Aquaporin-3-Inhibiting Potential of Polyoxotungstates” (International Journal of Molecular Sciences, 2020)

Columns and labels:
aquaporin-3 (AQP3) [1] = biological target: T1, aquaporin-3 (AQP3) (Homo sapiens, UniProt Q92482); assay: stopped-flow glycerol permeability in hRBCs; assay type: cell-based; design: native AQP3 in human red blood cells; conditions: red blood cells
T1 sequence (Q92482 1-292): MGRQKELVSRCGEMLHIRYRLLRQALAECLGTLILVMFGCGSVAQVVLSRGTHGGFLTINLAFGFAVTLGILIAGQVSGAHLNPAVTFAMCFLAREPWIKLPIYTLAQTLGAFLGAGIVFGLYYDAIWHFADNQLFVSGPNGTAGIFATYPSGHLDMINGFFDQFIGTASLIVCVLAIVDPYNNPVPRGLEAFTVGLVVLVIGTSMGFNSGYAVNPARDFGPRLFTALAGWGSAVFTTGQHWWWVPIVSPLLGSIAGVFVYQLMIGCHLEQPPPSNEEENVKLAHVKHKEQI

aquaporin-3 (AQP3) [2] = biological target: T1, aquaporin-3 (AQP3); assay: stopped-flow glycerol permeability in hRBCs; confirmed in yeast expressing human AQP3; assay type: cell-based; design: native AQP3 in human red blood cells (IC50); conditions: red blood cells

Row | IC50 (aquaporin-3 (AQP3) [1]) | IC50 (aquaporin-3 (AQP3) [2]) | Substance
1 | 2780 ± 90 nM | – | P2W12
2 | – | 800 ± 40 nM | P2W18
3 | 3240 ± 30 nM | – | P5W30
